From publication PMC6020689 (Angewandte Chemie (International ed. in English), 2018)

Molecular target: EtCYP112 (Erwinia tracheiphila, UniProt A0A0M2KIP9)
Test: GC-MS product analysis, reconstituted system
Assay type: biochemical
Settings: spinach Fd, EtFdR

SMILES	GC-MS product analysis, reconstituted system (NADPH)	GC-MS product analysis, reconstituted system (NADPH in excess)
C=C1C[C@]23C[C@H]1CC[C@H]2[C@]1(C=O)CCC[C@@](C)(C(=O)O)[C@H]1[C@@H]3C(=O)O [GA24]	while GA15 and GA24 were readily converted to GA9, GA25 is not	
C=C1C[C@]23C[C@H]1CC[C@H]2[C@]1(C)CCC[C@@](C)(C(=O)O)[C@H]1[C@@H]3C(=O)O [GA12]		reconstituted system with purified ferredoxin reductase from E. tracheiphila (EtFdR) and spinach ferredoxin (Fd), converting GA12
